Test results taken from patent US12297438B2, “Gene expression elements and systems and use thereof” (GENENEER LTD., priority 2019, dated 2025).
Where a name gives a salt, the structure may show the parent alone.

Tests used:
[1] = system: hpt gene with ECE in transgenic tobacco seedlings; test: Conditional expression of hygromycin resistance (hpt) gene with ECE in transgenic tobacco; format: in vivo; details: MS media versus MS+20 μM BENZ, seven days
Source text: Expression of selection genes is required only during early stages of plant transformation. Following the establishment of a transgenic plant, expression of the selection gene is not required. The hpt gene, conferring resistance to hygromycin, is generated by standard PCR reaction on the pBIGHYG plasmid (binary plasmid) and cloned into pTA vector. The ECE regulatory element is inserted into the hpt gene just after the its ATG start codon by standard Gibson assembly. In addition, the reporting gene GUS: B-glucuronidase is cloned into the pTA vector downstream to the hpt gene under the 35S promoter.
The vector is transferred into Agrobacterium tumefaciens EHAP105.
Tobacco genetic transformation is carried using hygromycin as for selection using a standard transformation protocol. 20 μM BENZ is added to the regeneration and selection medium to facilitate the expression of the selection gene. […] Seeds of heterozygous plants with single insert are selected.
Ten days following planting plants transformed to either MS-based media or remained on MS+20 μM BENZ media. Seven day after, RNA is extracted from transgenic plants. cDNA is synthesized from 20 μg of total RNA using cDNA syntheses kit. Quantitative real-time PCR is conducted on 100 ng of cDNA using the hygromycin-encoding gene primers.

[2] = system: transgenic poplar trees with ECE in the CCR gene; test: Lignin content in transgenic poplar carrying ECE-CCR; format: in vivo, Populus tremula×Populus alba; details: transgenic trees upon completion of BENZ treatment cycle
Source text: Populus trichocarpa cv. Trichobel CCR cDNA (Accession No. AJ224986) is cloned in to pTA vector using standard PCR reaction. ECE assembled by Gibson in to the middle CCR gene by introducing artificial intron. The resulted sequence is cloned under a tandem repeat of the CaMV 35S constitutive promoter and is transferred into the binary vector pBIG-HYG conferring resistance to hygromycin. Binary vector is transferred into Agrobacterium strain LB4404.
Poplar (Populus tremula×Populus alba) plants are transformed by Agrobacterium as described (Leplé et al. 1992, Plant Cell Rep. 11:137-141.) Transformants are selected by hygromycin resistance. Transformation is confirmed by molecular analysis of the insertions.
Four-to-five-month old greenhouse-grown trees are sprayed daily with 100 μM BENZ during a period of 6 months. […]
RT-PCR analysis of CCR is performed at different stages of the growth and development of the trees. […] Quantification of cDNA molecules is performed in five replicates by qPCR machine.
Lignin content is analyzed in samples from different stages of the growth and development of the trees according to Dence, 1992 (Lignin determination. In: Dence C, Lin S, editors. Methods in Lignin Chemistry. Berlin: Springer-Verlag; 1992. pp. 33-61). […] Lignin is then extracted with CH2Cl2, dried over Na2SO4, evaporated under reduced pressure at 40° C., re-dissolved in 1 mL of CH2Cl2 and analyzed by GC-MS

[3] = system: Arabidopsis thaliana protoplasts transformed with syz24-2.1 plasmid comprising the ECE within the GUS intron; test: GUS reporter expression in Arabidopsis thaliana protoplasts (ECE within GUS intron); format: cell-based
Experimental: Arabidopsis protoplasts were prepared as previously described (Wu F-H et al. 2009. Plant methods 5:16 doi: 10.1186/1746-4811-5-16). Plasmids syz24-2.1 and a control plasmid 5060 (constitutive GUS expression) were transformed (in the presence or without 10 μM BENZ (BZ-CAS 121749-39-1-BZ) into protoplasts (Wu et al., supra). Transfected protoplasts were washed and cultured in W5 solution with or without BENZ (BZ) in 1% bovine serum albumin-coated 15 ml tubes for 16 h at 28° C. to allow expression of the transfected DNA. The GUS expression system enables detection of a functional β-glucuronidase when protoplasts expressing the gene are incubated with the enzyme substrate 5-bromo-4-chloro-3-indolyl glucuronide (X-Glu), where the product of the reaction is a clear blue color. As described hereinabove, the expression system of the invention was introduced into an intron within the GUS encoding gene. […] The following assays were designed: • 1. Non transformed protoplasts • 2. Non transformed protoplasts exposed to 10 μM BENZ • 3. Non transformed protoplasts exposed to 100 μM BENZ • 4. Protoplast transformed with plasmid syz24-2.1 without exposure to BENZ • 5. Protoplast transformed with plasmid syz24-2.1 exposed to 10 μM BENZ • 6. Protoplast transformed with plasmid syz24-2.1 exposed to 100 μM BENZ • 7. Protoplast transformed with plasmid 5060 without exposure to BENZ • 8. Protoplast transformed with plasmid 5060 exposed to 10 μM BENZ • 9. Protoplast transformed with plasmid 5060 exposed to 100 μM BENZ In all assays in which the transformed protoplasts were exposed to BENZ, the transformation and subsequent washes were performed in the presence of the corresponding BENZ concentration (10 or 100 μM). After the last wash, the protoplasts were suspended in W5 buffer containing 10 μM or 100 μM BENZ and placed at 28° C. for 48 h. Thereafter the protoplasts were collected (by spinning at 100gX3 minutes). Protoplasts were resuspended in 0.5 ml 0.5M monitol+0.5 mg X-glucuronide (sigma B5285) and incubated at 37° C. 24 h.

[4] = system: Nicotiana benthamiana leaf discs transformed with Pzp 1503/syz24-1.2 plasmid (GUS + the mutated ECE); test: GUS reporter expression in tobacco leaf discs (β-glucuronidase assay); format: cell-based; details: MS buffer with 50 μM BENZ
Experimental: Protocol 5 ml Agrobacterium starter (transfected with the relevant plasmids) were grown with the selection antibiotics at 28° C. with agitation of 350 rpm overnight. Thereafter, the solution was centrifuged for 5 min. at 4500 g. The pellet was resuspended in 10 ml Induction Medium supplemented with the relevant antibiotic and 100 μM Acetosyringone, incubated for 5-6 hours at 28° C., 250 rpm and then centrifuged for 5 min at 4500 g. The bacteria were resuspended in 10 ml Infiltration Medium supplemented with 200 μM Acetosyringone (1M in DMSO). The bacteria density is measured at 660 nm to obtain OD660=1.
Leaf discs were cut from Nicotiana Benthamiana plants and put in 24 wells with 400 μl of the relevant Agrobacterium with or without 50 μM BENZ. Vacuum was applied for 8 min and then slowly released, followed by additional vacuum cycle of 1 min and slow release and incubation for 10 min. The leaf discs were then separated from the Agrobacterium suspension and resuspended with MS buffer with or without 50 μM BENZ and incubated at 24° C. for three days. At the end of the incubation, the leaf discs were subjected to β-glucuronidase (GUS) assay.
β-Glucuronidase (GUS) Assay
• 1. […]

[5] = system: SBEIIb with ECE in transgenic rice; test: SBEIIb expression and starch content in transgenic rice carrying ECE-SBEIIb; format: in vivo, rice (Nipponbare); details: rice grains 10 days post anthesis, activated by BENZ
Source text: High levels of the starch branching IIb gene in rice (SBEIIb, GQ150904.1) are typically linked to lower amylose content. Downregulating the activity of SBEIIb can lead to rice seeds with higher amylose content. The SBEIIb coding sequence is cloned from Nipponbare cDNA into pTA vector using the standard PCR reaction. The resulted clone is manipulated to carry the ECE regulatory element. The resulted altered fragment is closed into rice-transformation vector containing the wHMWG promoter and NOS terminator. The vector also contains the hygromycin resistance gene under the control of the CaMV 35S promoter. The vector is transferred into Agrobacterium tumefaciens AGL1. […]
RNA is extracted from rice grains, 10 days post anthesis. cDNA is synthesized from 5 μg of total RNA using cDNA syntheses kit. Quantitative real-time PCR is conducted on 100 ng of cDNA using the SBEIIb primers.
Protein analysis is conducted on soluble native proteins extracted from rice grains obtained 10 days post anthesis. […] Signals are recorded by automatic film processor.
Mature panicles are analyzed for their starch content. Fully developed and mature seeds are collected, weighed, dried and ground and total starch is determined using Total Starch HK Assay (Megazyme) and resistant starch is determined using Resistant Starch Assay Kit (Megazyme).

[6] = system: F293 cells transfected with the ECE-CAS9 plasmid; test: CAS activity in F293 cells transfected with ECE-CAS9 plasmid (Bpu10I cut/uncut ratio); format: cell-based; details: DMEM supplemented with 10 μM BENZ, 48 hours
Source text: In one example, the ECE regulatory element of the present invention can be used to determine the expression level of the CRISPR-CAS9 complex (Gene Bank Accession No. KF264451) allowing timely editing of the genome. The viral (Px330) CRISPER CAS system can be acquired from “addgene” (plasmid #117919). The ECE regulatory element is synthesized with the sequence of the BseRI restriction site to produce an expression system of the invention having SEQ ID NO:51, and then to be inserted into the 117919 plasmid (SEQ ID NO:57). The ECE sequence is located within the artificial hybrid intron, known to increase transcription levels.
Plasmid was transfected in to F293 cells by Lipofectamine 3000 (L3000015 ThermoFisher) according to the manufacturer instructions. Immediately following transfection cells were incubated with either DMEM or DMEM supplemented with BENZ for 48 hours.
The sgRNA is designed to target the cyclin D1 gene (Accession BC023620) at the Bpu 10I restriction site (sgRNA=[…], SEQ ID NO:60). The efficiency of the CRISPER assay is determined by extracting the DNA, digesting it with Bpu10I and measuring, by bioanalyser, the ratio between the cut and uncut fragments, uncut indicates an efficient CAS activity.

[7] = system: CCR5 expression in ECE included PBMC cells; details: 50 μM spermin
Experimental: Plasmid is transfected in to PBMC cells using standard protocol (lipofectamine) and selected for ECE insertion using NGS analyses. Cells are incubated in CTS™ OpTmizer™ (ThermoFisher A3705001) with or without 50 μM spermin. Cells are then stained with CCR5 antibody (BioLegend 359105) and passed through flow cytometry column to detect the level of CCR5 expression.

Row | SMILES | expression of hygromycin-encoding gene (quantitative real-time PCR) [1] | lignin levels [2] | β-glucuronidase activity (blue color) ([3]; non-transformed protoplasts, 10 μM or 100 μM BENZ) | β-glucuronidase activity (blue color) ([3]; protoplasts transformed with control plasmid 5060 (constitutive GUS), 10 μM or 100 μM BENZ) | β-glucuronidase activity (blue color) ([3]; protoplasts transformed with syz24-2.1, W5 supplemented with 10 μM BENZ) | β-glucuronidase activity (blue color) ([3]; protoplasts transformed with syz24-2.1, W5 supplemented with 100 μM BENZ) | β-glucuronidase activity (blue color) ([4]; leaf discs transformed with Pzp 1503/syz24-1.2, three days) | β-glucuronidase activity (blue color) ([4]; leaf discs transformed with control plasmid (constitutive GUS)) | SBEIIb protein (Western blot) [5] | CAS activity (increase of uncut fragments) [6] | CCR5 expression [7]
1 | CCNCCCNCCCNCCCNCC [BENZ, N^1,N^11-Diethylnorspermine tetrahydrochloride] | reduced in the transgenic seedlings when grown on MS media compared to seedling that grow on MS+20 μM BENZ | expected to be comparable to transgenic plants, and lower than wild type plants | not observed | β-glucuronidase activity irrespective of the presence of BENZ | only when cells were incubated with W5 supplemented with 100 μM BENZ | showed β-glucuronidase activity | showed β-glucuronidase activity | expressed β-glucuronidase activity | increase in SBEIIb | increase in CAS activity | 
2 | NCCCNCCCCNCCCN [spermin, spermine] |  |  |  |  |  |  |  |  |  |  | expected to increase
